{"source": "patent US6342368B1", "about": "“WD-40-derived peptides and uses thereof” (The Board of Trustees of the Leland Stanford Junior …, priority 1994, dated 2002)", "system": "δ and εPKC isozymes", "test": "PKC isozyme translocation and degradation in cardiac myocytes", "assay_type": "cell-based, rat", "method": "In cardiac myocytes, norepinephrine (NE, 2 μM) causes translocation of δ and εPKC isozymes from the cytosolic to the particulate fraction. […] This peptide-induced translocation was followed by degradation of δ and εPKC isozymes.", "key": {"[1]": {"details": "peptide introduced into cardiac myocytes"}}, "note": "Entries after “also recorded” stand apart in the source; their conditions may differ.", "data": [{"substance": "peptide I: 15-residue peptide homologous to a sequence in the sixth WD-40 repeat of RACK1; PKC antagonist (KGDYEKILVALCGGN)", "values": [{"measurement": "NE-induced translocation of δ and εPKC", "setting": "norepinephrine 2 μM", "result": "inhibited"}, {"measurement": "degradation of PKC isozymes", "setting": "[1]", "result": "nor does it induce PKC degradation; also recorded: did not cause degradation"}, {"measurement": "translocation / distribution of δ and εPKC isozymes in the absence of hormone stimulation", "setting": "[1]", "result": "does not affect PKC distribution"}]}]}
